Columns and labels:
Assay type in all cases: cell-based
[1] = test system: metabotropic glutamate receptors; test: Inhibition of kainate responses by stimulation of metabotropic glutamate receptors in oocytes injected with rat brain poly A+ mRNA; conditions: about 500 μM tACPD, about 100 μM kainate, repetitive applications, FIG. 14
Protocol: Poly A^+ mRNA are extracted from brain tissue and neuronal cell culture using a magnetic separation protocol based on the Dynabeads Oligo (dT)25 kit (Dynal, Olso, Norway). Briefly, the protocol utilized magnetic beads that have an attached poly-T moiety which can bind poly A^+ mRNA for separation. Tissue is homogenized, cells are disrupted, and the lysate is added to an aliquot of Dynabeads. Magnetic separation efficiently yields mRNA that is suitable for direct injection into oocytes. Batches of about 20 to about 30 select oocytes are injected with about 50 to about 100 ng of neuronal poly A^+ mRNA. Alternatively, oocytes may be injected with about […] of RNA prepared from in vitro transcription of cDNA clones. In either case, injection may be performed using a Drummond electronic microinjector. Oocytes are then maintained at about 18° C. to about 19° C. for about 2 to about 4 days to allow protein expression prior to electrophysiological recordings. After incubation, electrophysiological analysis of expressed receptors and ion channels may be performed using a system according to the present invention.

[2] = test system: kainate responses in oocytes injected with rat brain poly A+ mRNA; test: Effect of pregnenolone sulfate on kainate dose-response curve in oocytes injected with rat brain poly A+ mRNA; conditions: with and without pregnenolone sulfate, Vh about −100 mV, FIG. 9
Protocol: Poly A^+ mRNA are extracted from brain tissue and neuronal cell culture using a magnetic separation protocol based on the Dynabeads Oligo (dT)25 kit (Dynal, Olso, Norway). Briefly, the protocol utilized magnetic beads that have an attached poly-T moiety which can bind poly A^+ mRNA for separation. Tissue is homogenized, cells are disrupted, and the lysate is added to an aliquot of Dynabeads. Magnetic separation efficiently yields mRNA that is suitable for direct injection into oocytes. Batches of about 20 to about 30 select oocytes are injected with about 50 to about 100 ng of neuronal poly A^+ mRNA. Alternatively, oocytes may be injected with about 30 μl to about 80 μl of RNA prepared from in vitro transcription of cDNA clones. In either case, injection may be performed using a Drummond electronic microinjector. Oocytes are then maintained at about 18° C. to about 19° C. for about 2 to about 4 days to allow protein expression prior to electrophysiological recordings. After incubation, electrophysiological analysis of expressed receptors and ion channels may be performed using a system according to the present invention.
About 3 days to about 5 days after RNA injection, electrophysiological recordings were carried out using an Axoclamp-2A voltage clamp amplifier (Axon Instruments, Inc.). […]

[3] = biological target: T1, recombinant GluR6 kainate receptors (Homo sapiens, UniProt Q13002); test: Effects of steroids on recombinant GluR6 kainate receptors in oocytes; conditions: recombinant GluR6, Vh about −100 mV, FIG. 11
T1 construct: expressed in transfected cells; host or cells: Xenopus laevis oocytes injected with in vitro transcribed GluR6 cRNA
T1 sequence (Q13002 32-908): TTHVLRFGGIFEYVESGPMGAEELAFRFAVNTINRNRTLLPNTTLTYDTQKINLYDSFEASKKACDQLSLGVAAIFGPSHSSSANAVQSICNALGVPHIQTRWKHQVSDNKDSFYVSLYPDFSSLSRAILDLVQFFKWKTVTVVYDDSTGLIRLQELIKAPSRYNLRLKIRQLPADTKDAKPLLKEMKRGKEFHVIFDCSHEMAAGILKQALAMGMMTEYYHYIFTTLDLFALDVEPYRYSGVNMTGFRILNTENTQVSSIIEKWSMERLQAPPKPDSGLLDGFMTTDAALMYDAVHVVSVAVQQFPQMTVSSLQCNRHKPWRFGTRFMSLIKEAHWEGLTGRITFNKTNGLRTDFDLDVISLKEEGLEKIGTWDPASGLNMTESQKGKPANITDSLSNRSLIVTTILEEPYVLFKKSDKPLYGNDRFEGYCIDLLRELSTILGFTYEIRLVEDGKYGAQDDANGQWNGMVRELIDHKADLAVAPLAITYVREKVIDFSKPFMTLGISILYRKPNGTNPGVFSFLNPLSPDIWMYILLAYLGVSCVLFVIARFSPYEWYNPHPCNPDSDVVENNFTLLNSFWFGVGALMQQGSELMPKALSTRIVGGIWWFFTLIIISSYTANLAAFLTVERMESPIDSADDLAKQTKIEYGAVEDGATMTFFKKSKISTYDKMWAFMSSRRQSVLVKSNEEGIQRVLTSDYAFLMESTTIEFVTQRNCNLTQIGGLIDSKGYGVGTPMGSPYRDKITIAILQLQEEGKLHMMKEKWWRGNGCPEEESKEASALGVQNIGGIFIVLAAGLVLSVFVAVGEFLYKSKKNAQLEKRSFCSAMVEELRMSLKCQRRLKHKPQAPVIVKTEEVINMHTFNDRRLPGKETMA
Protocol: All measurements were performed under Vh of about −100 mV.
About 3 days to about 5 days after RNA injection, electrophysiological recordings were carried out using an Axoclamp-2A voltage clamp amplifier (Axon Instruments, Inc.). Experiments were performed in two-electrode voltage clamp mode using two intracellular microelectrodes of about 1 to about 3 mega-ohm resistance filled with a solution of about 3M KCl.
Oocytes were usually clamped at a holding potential of about −60 mV and stepped to about −100 mV during agent application.

Row | Compound | Effect on responses to kainate [1] | Effect on Emax of kainate dose-response curve [2] | Effect on maximal response to kainate [3]
1 | N[C@]1(C(=O)O)CC[C@H](C(=O)O)C1 [tACPD] | can inhibit responses to kainate | – | –
2 | pregnenolone sulfate | – | decrease in Emax | decrease the maximal response to kainate

From US6762036B2, “Cellular physiology workstations for automated data acquisition and perfusion control” (Trustees of Boston University, priority 1995, dated 2004)
